Strand notation (5' to 3'): a small letter for the sugar, then the base; units joined by * are phosphorothioate-linked, units joined directly phosphodiester-linked; [ ] holds rarer units or linkages, { } end groups; capitals alone tell only the bases. k = constrained ethyl (cEt); [5mC] = 5-methylcytosine; d = 2'-deoxy (DNA)

The subject of the first data set is human SMAD7 mRNA. Nature of the data set: Antisense inhibition of human SMAD7 mRNA expression in Hep3B cells by 3-10-3 cEt gapmers, 10,000 nM, electroporation (Example 2). Particulars: Hep3B cells, electroporation with 10,000 nM antisense oligonucleotide, approximately 24 hours, SMAD7 mRNA by RT-PCR (RTS5062), relative to untreated control cells. Format: cell-based. An outline of the steps:
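SMAD7 mRNA was measured by real-time PCR (RTS5062) with RiboGreen total-RNA normalization, about 24 h after 10,000 nM gapmer was delivered by electroporation into Hep3B cells at 20,000 per well. Gapmers were 16-mer 3-10-3 cEt, fully phosphorothioate; values are % inhibition versus untreated controls.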
For the substance “798713 (antisense kG*k[5mC]*k[5mC]*dG*d[5mC]*d[5mC]*dA*d[5mC]*d[5mC]*dG*dG*d[5mC]*d[5mC]*k[5mC]*k[5mC]*kA) [compound 798713]”, the % Inhibition (usually how much of the control response was suppressed) came to 45%.
For the substance “798714 (antisense kG*kG*k[5mC]*d[5mC]*dG*d[5mC]*d[5mC]*dG*d[5mC]*d[5mC]*dA*d[5mC]*d[5mC]*kG*kG*k[5mC]) [compound 798714]”, the “% Inhibition” value worked out at 0%.
For the substance “798715 (antisense kG*k[5mC]*k[5mC]*d[5mC]*dG*dG*dG*d[5mC]*d[5mC]*dG*d[5mC]*d[5mC]*dG*k[5mC]*k[5mC]*kA) [compound 798715]”, the “% Inhibition” value is 0%.
For the substance “798716 (antisense k[5mC]*k[5mC]*kT*dG*d[5mC]*d[5mC]*d[5mC]*dG*dG*dG*d[5mC]*d[5mC]*dG*k[5mC]*k[5mC]*kG) [compound 798716]”, the “% Inhibition” value stood at 0%.
Consider “798717 (antisense kA*kG*k[5mC]*d[5mC]*d[5mC]*dT*dG*d[5mC]*d[5mC]*d[5mC]*dG*dG*dG*k[5mC]*k[5mC]*kG) [compound 798717]”, for which the “% Inhibition” value was 18%.
Take “798718 (antisense kA*kT*k[5mC]*d[5mC]*dA*dG*d[5mC]*d[5mC]*d[5mC]*dT*dG*d[5mC]*d[5mC]*k[5mC]*kG*kG) [compound 798718]”: the “% Inhibition” value amounted to 37%.
For the substance “798719 (antisense kA*kG*k[5mC]*dA*dT*d[5mC]*d[5mC]*dA*dG*d[5mC]*d[5mC]*d[5mC]*dT*kG*k[5mC]*k[5mC]) [compound 798719]”, the “% Inhibition” value is reported as 34%.
Regarding “798720 (antisense kG*kG*k[5mC]*dA*dG*d[5mC]*dA*dT*d[5mC]*d[5mC]*dA*dG*d[5mC]*k[5mC]*k[5mC]*kT) [compound 798720]”, the “% Inhibition” value is reported as 25%.
Turning to “798721 (antisense kG*k[5mC]*k[5mC]*d[5mC]*dA*dG*dG*d[5mC]*dA*dG*d[5mC]*dA*dT*k[5mC]*k[5mC]*kA) [compound 798721]”, the “% Inhibition” value is reported as 41%.
“798722 (antisense k[5mC]*kT*kT*dG*d[5mC]*d[5mC]*d[5mC]*dA*dG*dG*d[5mC]*dA*dG*k[5mC]*kA*kT) [compound 798722]”: the “% Inhibition” value worked out at 0%.
“798734 (antisense kG*k[5mC]*k[5mC]*d[5mC]*dG*d[5mC]*dG*dG*d[5mC]*dT*dG*dG*d[5mC]*kG*kG*kG) [compound 798734]”: the “% Inhibition” value was determined as 0%.
For “798735 (antisense k[5mC]*k[5mC]*k[5mC]*d[5mC]*d[5mC]*dG*dG*d[5mC]*d[5mC]*dG*d[5mC]*dG*d[5mC]*k[5mC]*kG*kG) [compound 798735]”, the “% Inhibition” value is reported as 0%.
Regarding “798736 (antisense kG*k[5mC]*kG*d[5mC]*d[5mC]*d[5mC]*d[5mC]*d[5mC]*dG*dG*d[5mC]*d[5mC]*dG*k[5mC]*kG*k[5mC]) [compound 798736]”, the “% Inhibition” value worked out at 0%.
Take “798737 (antisense k[5mC]*kA*kG*dA*dT*d[5mC]*d[5mC]*dG*d[5mC]*d[5mC]*dT*d[5mC]*dG*kG*k[5mC]*kG) [compound 798737]”: the “% Inhibition” value is given as 2%.
Take “798738 (antisense k[5mC]*kT*kT*d[5mC]*dA*dG*dA*dT*d[5mC]*d[5mC]*dG*d[5mC]*d[5mC]*kT*k[5mC]*kG) [compound 798738]”: the “% Inhibition” value was 25%.
For “798739 (antisense k[5mC]*kG*k[5mC]*d[5mC]*dT*dT*d[5mC]*dA*dG*dA*dT*d[5mC]*d[5mC]*kG*k[5mC]*k[5mC]) [compound 798739]”, the “% Inhibition” value came to 37%.
Regarding “798740 (antisense kT*kT*kG*dA*dG*d[5mC]*dA*d[5mC]*d[5mC]*dG*dA*dG*dT*kG*k[5mC]*kG) [compound 798740]”, the “% Inhibition” value worked out at 56%.
For the substance “798741 (antisense k[5mC]*kT*kT*d[5mC]*dA*dG*dT*dT*dT*d[5mC]*dT*dT*dG*kA*kG*k[5mC]) [compound 798741]”, the “% Inhibition” value was determined as 17%.
As to “798751 (k[5mC]*k[5mC]*kG*dG*dG*d[5mC]*dA*dG*d[5mC]*dA*dG*dG*dA*kG*kG*k[5mC]; antisense) [compound 798751]”, the “% Inhibition” value is 0%.
As to “798752 (k[5mC]*kG*kG*d[5mC]*d[5mC]*dG*dG*dG*d[5mC]*dA*dG*d[5mC]*dA*kG*kG*kA; antisense) [compound 798752]”, the “% Inhibition” value is on record as 0%.
Turning to “798753 (kT*kG*k[5mC]*dA*dG*dT*d[5mC]*d[5mC]*dA*dG*dG*d[5mC]*dG*kG*k[5mC]*k[5mC]; antisense) [compound 798753]”, the “% Inhibition” value was found to be 0%.
In the case of “798754 (kA*kG*k[5mC]*d[5mC]*dT*dG*d[5mC]*dA*dG*dT*d[5mC]*d[5mC]*dA*kG*kG*k[5mC]; antisense) [compound 798754]”, the “% Inhibition” value is 16%.

Staying with this data set, now noted: Hep3B cells, electroporation with 10,000 nM antisense oligonucleotide, approximately 24 hours, primer probe set RTS5062, relative to untreated control cells.
As to “798709 (antisense kT*kG*k[5mC]*dG*d[5mC]*dT*d[5mC]*dG*dG*d[5mC]*dT*dG*dT*k[5mC]*k[5mC]*kG) [compound 798709]”, the “% inhibition of SMAD7 mRNA expression” value is recorded as 2%.
For “798710 (antisense k[5mC]*k[5mC]*k[5mC]*d[5mC]*dA*dT*dG*d[5mC]*dG*d[5mC]*dT*d[5mC]*dG*kG*k[5mC]*kT) [compound 798710]”, the “% inhibition of SMAD7 mRNA expression” value is given as 54%.
As to “798711 (antisense k[5mC]*kG*kG*d[5mC]*d[5mC]*d[5mC]*d[5mC]*dA*dT*dG*d[5mC]*dG*d[5mC]*kT*k[5mC]*kG) [compound 798711]”, the “% inhibition of SMAD7 mRNA expression” value is 59%.
Take “798712 (antisense kG*k[5mC]*k[5mC]*dA*d[5mC]*d[5mC]*dG*dG*d[5mC]*d[5mC]*d[5mC]*d[5mC]*dA*kT*kG*k[5mC]) [compound 798712]”: the “% inhibition of SMAD7 mRNA expression” value was 6%.
As for “798723 (antisense k[5mC]*kG*k[5mC]*d[5mC]*dT*dT*dG*d[5mC]*d[5mC]*d[5mC]*dA*dG*dG*k[5mC]*kA*kG) [compound 798723]”, the “% inhibition of SMAD7 mRNA expression” value is 0%.
Take “798724 (antisense k[5mC]*kA*k[5mC]*d[5mC]*dG*d[5mC]*d[5mC]*dT*dT*dG*d[5mC]*d[5mC]*d[5mC]*kA*kG*kG) [compound 798724]”: the “% inhibition of SMAD7 mRNA expression” value was found to be 19%.
Turning to “798725 (antisense kT*k[5mC]*kG*d[5mC]*dA*d[5mC]*d[5mC]*dG*d[5mC]*d[5mC]*dT*dT*dG*k[5mC]*k[5mC]*k[5mC]) [compound 798725]”, the “% inhibition of SMAD7 mRNA expression” value was 29%.
Take “798726 (antisense k[5mC]*kA*k[5mC]*d[5mC]*dT*d[5mC]*dG*d[5mC]*dA*d[5mC]*d[5mC]*dG*d[5mC]*k[5mC]*kT*kT) [compound 798726]”: the “% inhibition of SMAD7 mRNA expression” value was determined as 7%.
The same measure, in the same setting: for “798727 (antisense kT*kG*kG*d[5mC]*dA*d[5mC]*d[5mC]*dT*d[5mC]*dG*d[5mC]*dA*d[5mC]*k[5mC]*kG*k[5mC]) [compound 798727]” the value was 51%; for “798728 (antisense k[5mC]*kT*kT*dT*dG*dG*d[5mC]*dA*d[5mC]*d[5mC]*dT*d[5mC]*dG*k[5mC]*kA*k[5mC]) [compound 798728]”, 41%; for “798729 (antisense kG*kA*k[5mC]*d[5mC]*dT*dT*dT*dG*dG*d[5mC]*dA*d[5mC]*d[5mC]*kT*k[5mC]*kG) [compound 798729]”, 51%.
Still for that read-out and setting: to “798730 (antisense kG*kG*kT*dG*dA*d[5mC]*d[5mC]*dT*dT*dT*dG*dG*d[5mC]*kA*k[5mC]*k[5mC]) [compound 798730]” belongs 0%.
As for “798731 (antisense kG*kG*kT*dG*dG*dT*dG*dA*d[5mC]*d[5mC]*dT*dT*dT*kG*kG*k[5mC]) [compound 798731]”, the “% inhibition of SMAD7 mRNA expression” value came to 43%.
Consider “798732 (antisense kG*kG*kA*dT*dG*dG*dT*dG*dG*dT*dG*dA*d[5mC]*k[5mC]*kT*kT) [compound 798732]”, for which the “% inhibition of SMAD7 mRNA expression” value came out at 51%.
As for “798742 (antisense k[5mC]*kT*k[5mC]*d[5mC]*dT*dT*d[5mC]*dA*dG*dT*dT*dT*d[5mC]*kT*kT*kG) [compound 798742]”, the “% inhibition of SMAD7 mRNA expression” value was 30%.
In the case of “798743 (antisense kT*kG*k[5mC]*d[5mC]*dG*d[5mC]*dT*d[5mC]*d[5mC]*dT*dT*d[5mC]*dA*kG*kT*kT) [compound 798743]”, the “% inhibition of SMAD7 mRNA expression” value was 19%.
On the same count and under the same terms, for “798744 (antisense kA*kG*k[5mC]*dT*dG*d[5mC]*d[5mC]*dG*d[5mC]*dT*d[5mC]*d[5mC]*dT*kT*k[5mC]*kA) [compound 798744]” the value was 12%; for “798745 (antisense kG*k[5mC]*kA*dG*d[5mC]*dT*d[5mC]*d[5mC]*dA*dG*d[5mC]*dT*dG*k[5mC]*k[5mC]*kG) [compound 798745]”, 0%.
Take “798746 (antisense kT*kG*kG*dA*dG*d[5mC]*dA*dG*d[5mC]*dA*dG*d[5mC]*dT*k[5mC]*k[5mC]*kA) [compound 798746]”: the “% inhibition of SMAD7 mRNA expression” value turned out to be 30%.
On the same count and under the same terms, to “798747 (antisense k[5mC]*kG*kG*d[5mC]*d[5mC]*dT*dG*dG*dA*dG*d[5mC]*dA*dG*k[5mC]*kA*kG) [compound 798747]” belongs 14%; to “798748 (antisense k[5mC]*kT*k[5mC]*d[5mC]*dA*d[5mC]*dG*dG*d[5mC]*d[5mC]*dT*dG*dG*kA*kG*k[5mC]) [compound 798748]”, 58%; to “798749 (antisense kG*kG*kA*d[5mC]*dT*d[5mC]*d[5mC]*dA*d[5mC]*dG*dG*d[5mC]*d[5mC]*kT*kG*kG) [compound 798749]”, 63%.
As for “798750 (antisense kA*kG*kG*dA*dG*dG*d[5mC]*dA*d[5mC]*dG*d[5mC]*dG*dG*kT*kG*k[5mC]) [compound 798750]”, the “% inhibition of SMAD7 mRNA expression” value is 54%.

For the origin of these results see US10517889B2, “Modulators of SMAD7 expression” (Ionis Pharmaceuticals, Inc., priority 2017, dated 2019).
